# Earlier results as cited in patent US20080194655A1, “ZERO ORDER CONTROLLED RELEASE COMPOSITIONS OF TIZANIDINE” (priority 2007, published 2008).
# Tested on: cognitive function (attention)
# Conditions: doses of 0.5-0.7 g/kg alcohol
compound,measurement,value
CCO [alcohol],peak impairment (decrement) in Power of Attention compared to baseline,about 150 msec
